Row | melting point [°C] | SMILES
1 | 145 to 147 | O=c1cnc(C(F)(F)F)cn1-c1c(Cl)cc(C(F)(F)F)cc1[N+](=O)[O-]
2 | 47 to 49 | COc1cc(OC)nc(OC)c1
3 | 81 to 82 | COc1ccc(/C=N/N2CCCCC2)cc1OC1CCCC1
4 | > 300 | Cn1ncc(C(=O)N2CC3(COC3)C2)c1C(=O)Nc1ccn2nc(N3CCOCC3)nc2c1
5 | 85 to 87 | CCN(CC)c1ccc(C(=O)C#Cc2ccncc2)cc1
6 | 146 to 148 | N#Cc1cnn2c1NCCC2c1cccc(F)c1 (stereo unspecified)
7 | 236 to 238 | CNc1nc2c(Cc3cccnc3)c(C)c(O)c(C)c2s1
8 | 216 | COc1ccccc1-c1cc2[nH]c3ccc(O)cc3c2c2c1C(=O)NC2=O
9 | 101 to 102 | CC(=O)N[C@@H](CSC(=O)C(C)C)C(=O)NCCSC(=O)C(C)(C)C
10 | 40 to 42 | N#CC(c1ccccc1Cl)N1CCOCC1 (stereo unspecified)
11 | 109 to 111 | CSc1cnc2c(c1)CCC(c1ccc(Cl)c(Cl)c1)O2 (stereo unspecified)
12 | 178 to 179 | CC(=O)c1ccc2c(c1)C(C(=O)Nc1cccc(C(=O)Nc3ccccc3)c1)C(=O)N2C (stereo unspecified)
13 | 98 to 100 | Fc1ccc([C@@H]2CCN(Cc3ccccc3)C[C@H]2COc2ccc3c(c2)OCO3)cc1
14 | 133 | CCOC(=O)CC(=O)c1cc(Cl)c(F)c(Cl)c1F
15 | 162 to 164 | Nc1cc2c(Nc3ccc(F)c(Cl)c3)ncnc2cc1OCC1CCCO1 (stereo unspecified)
16 | 145 to 147 | CCOC(=O)c1cnn2c1c(Nc1ccccc1)nc1ccccc12
17 | 199 to 200 | CC(C)(C)OC(=O)NC[C@H]1CC[C@H](CNS(=O)(=O)c2cccc3ccccc23)CC1
18 | 180 | COc1ncccc1Oc1cc(-n2c(=O)cc(C(F)(F)F)n(C)c2=O)c(F)cc1Cl
19 | 136 to 137 | CCc1cn(C(CC)CC)c(=O)c(N2CCc3cc(Cl)cc(Cl)c32)n1
20 | 177 to 179 | C#CCOc1ccc(C(=O)C=Cc2c(OC)cc(OC)cc2OC)c(O)c1
21 | 205 to 206 | Cc1ccc(-c2cn3cc([N+](=O)[O-])ccc3n2)cc1
22 | 136 to 137 | COC(=O)Cc1cc2c(c([N+](=O)[O-])c1)N(C(C)=O)CC2
23 | 121 to 122 | COc1ccc(N2C(=O)C(O[Si](C(C)C)(C(C)C)C(C)C)C2c2ccc(F)cc2)cc1 (stereo unspecified)

The next lines start with the compound.

Row | SMILES | melting point [°C]
24 | O=C(O)CCc1ccnc(-c2nc(=O)c3ccc(Br)cc3s2)c1 | 258 to 259
25 | O=c1ccc2c(-c3cccc(O)c3)nccc2[nH]1 | 297 to 299
26 | O=C(Nc1ccc(SC(F)(F)F)cc1)c1cc(S(=O)(=O)c2ccccc2)c2ccccc2c1O | 271 to 272
27 | Clc1cc(Cl)cc(Oc2cccc(-c3nnc(Nc4ccc(Cl)c(Cl)c4)s3)c2)c1 | 242 to 243
28 | C1=CCC23C=CC=CN2c2nccn2C3=C1 (stereo unspecified) | 258 to 260
29 | COc1ccc2c(c1)c(C1CCN(Cc3cccc(C(=O)O)c3)CC1)cn2CCc1ccsc1 | 217 to 218
30 | CC(c1ccc2ncccc2c1)n1nnc2ccc(-c3cnn(CCO)c3)nc21 (stereo unspecified) | 188 to 191
31 | CSc1cc2[nH]ccc2cc1F | 51
32 | CCCCCNC(=O)[C@@H]1CCCN1C(=O)[C@H](C)NC(=O)CC | 105 to 108
33 | C[C@@H](NCCOCc1ccccc1)[C@](O)(Cn1cncn1)c1ccc(Cl)cc1Cl (relative stereo) | 105 to 107
34 | N#CC1C=Cc2cc(Cl)ccc2N1C(=O)c1ccccc1 (stereo unspecified) | 141 to 143
35 | COc1cn(-c2cc(-n3cccn3)ccc2F)nc(-c2ccnn2-c2ccccc2)c1=O | 186 to 187
36 | COc1cc2cc3c(=O)c(C#N)c[nH]c3cc2cc1OCc1ccccc1 | > 300
37 | CCCCCCCC(=O)c1cc2sc3sccc3c2s1 | 130 to 131
38 | NNc1ncc(-c2cccc(C(F)(F)F)c2)nn1 | 229 to 232
39 | COc1ccc(-n2nc(CC(C)(C)C(=O)O)cc2-c2ccc(Cl)cc2)cc1 | 172 to 174
40 | CC(=O)NC1CCc2c([nH]c3ccccc23)C1 (stereo unspecified) | 203 to 206
41 | COC(=O)c1ccc(CNc2cc(C(=O)Nc3ccccc3)ccc2OC)cc1 | 170 to 172
42 | O=C(O)Cc1csc2cc(-c3ccccc3)cn12 | 114 to 116
43 | CC(=O)C(=Cc1cc([N+](=O)[O-])c(O)c([N+](=O)[O-])c1)C(C)=O | 158
44 | CC(=O)c1ccsc1S(N)(=O)=O | 193 to 196
45 | O=C(Nc1c(OCCN(Cc2ccccc2)C(=O)C(F)(F)F)cccc1[N+](=O)[O-])C(F)(F)F | 114 to 115
46 | Cc1c(C(=O)Nc2ccc(OCC(C)(C)C)c(C#N)c2)cnn1CCO | 98 to 100
47 | COc1ccnc(CCc2nc3cc(-c4ccncc4)cnc3[nH]2)c1 | 237 to 238

Row | SMILES | melting point [°C]
48 | COC(=O)C1=C(C)NC(C)=C(C(=O)OC)C1c1ccccc1-c1ccsc1 | 164 to 166
49 | CSCOC1CCC2C3CCC4=CC(=O)C=CC4(C)C3(F)C(OC(C)=O)CC12C (stereo unspecified) | 142 to 143
50 | Cc1cc(Oc2ncc(C(F)(F)F)cc2Cl)nn1C(=O)N(C(C)C)C(C)C | 58 to 60
51 | CCN1c2ncc(CCc3ccncc3)cc2C(=O)N(C)c2ccc(N)nc21 | 94 to 97
52 | CCC1=C(C(=O)O)C(C(F)(F)F)Oc2ccc(Cl)cc21 (stereo unspecified) | 171 to 172
53 | N#Cc1ccccc1OCCCN1CCC(NC(=O)C2CCCCC2)CC1 | 110 to 112
54 | CCOC(=O)c1ccc(C(=O)Nc2ccc3c(c2)CCCC(=O)N3C)cc1 | 184 to 185
55 | C#CCN1C(=O)COc2ccc(-c3ncc(C(F)(F)F)cc3Cl)cc21 | 136 to 137
56 | COc1cc(OC)nc(Oc2cccnc2CO)n1 | 115
57 | CCCc1nn(C)c2c(=O)n(CCOc3cccc(OC(C)(C)C(=O)O)c3)c(C)nc12 | 140 to 142
58 | O=C(OCC1OC(n2cc(I)c(=O)[nH]c2=O)C(F)C1OC(=O)c1ccccc1)c1ccccc1 (stereo unspecified) | 197
59 | Cc1cnc(-n2cc(C(F)(F)F)cn2)nc1Oc1cccc(C(F)(F)F)c1 | 103 to 105
60 | O=C(O)C1(c2ccco2)CC1 | 113 to 114
61 | COc1ccc(-c2cc(NC(=O)C3(C)Cc4ccccc4C3)n[nH]2)cc1 | 171 to 172
62 | CCOC(=O)c1ccc(N(CCOc2ccc(C(C)=O)c3ccccc23)C(=O)C(F)(F)F)cc1 | 160 to 161
63 | O=C1Nc2ccccc2C12COc1c(Cl)cc3c(c12)OCCO3 (stereo unspecified) | 255 to 257
64 | C#CCOc1ccc(-c2nc3cnncc3[nH]2)c(OC)c1 | 224
65 | N#Cc1c(N2CCN(C(=O)c3cccs3)CC2)c2cccnc2n(Cc2cccc(F)c2)c1=O | 231
66 | CCOC(=O)c1c(C)cc2c(c1C)c(=O)n(-c1ccccc1Cl)c(=O)n2CC(N)=O | 285 to 287
67 | CC1CCN(c2c(C#N)c3c(c4c2CCc2ccccc2-4)-c2ccccc2C3)CC1 | 152 to 154
68 | CCCCN(CCCC)CC(=O)N1c2ccccc2N(CCCC)C(=O)c2cnc(-c3ccccc3)nc21 | 103 to 104
69 | COC(=O)c1nc(-c2ccc(Cl)c(F)c2F)nc(N)c1/C=C/[Si](C)(C)C | 139 to 141
70 | CCc1cccc2c3c([nH]c12)C(CC)(CC(=O)OC)OCC3=O (stereo unspecified) | 187 to 189
71 | Cc1ccc(S(=O)(=O)OCC2Cc3cccc(-c4ccc(F)cc4F)c3O2)cc1 (stereo unspecified) | 116 to 118

Source: a melting point compilation (Tetko et al.; mined from patent text by program, amines drawn as free bases though some values may be those of a salt)
